Read-outs that look alike come from different tables or passages of the source.
Biological target: T1, Pancreatic lipase (from porcine pancreas, type II) (Sus scrofa, UniProt P00591)
T1 construct: Pancreatic lipase (from porcine pancreas, type II, 100-500 units/mg, L3126); purchased Sigma-Aldrich L3126; host or cells: porcine pancreas (tissue-derived)
T1 sequence (P00591 1-450): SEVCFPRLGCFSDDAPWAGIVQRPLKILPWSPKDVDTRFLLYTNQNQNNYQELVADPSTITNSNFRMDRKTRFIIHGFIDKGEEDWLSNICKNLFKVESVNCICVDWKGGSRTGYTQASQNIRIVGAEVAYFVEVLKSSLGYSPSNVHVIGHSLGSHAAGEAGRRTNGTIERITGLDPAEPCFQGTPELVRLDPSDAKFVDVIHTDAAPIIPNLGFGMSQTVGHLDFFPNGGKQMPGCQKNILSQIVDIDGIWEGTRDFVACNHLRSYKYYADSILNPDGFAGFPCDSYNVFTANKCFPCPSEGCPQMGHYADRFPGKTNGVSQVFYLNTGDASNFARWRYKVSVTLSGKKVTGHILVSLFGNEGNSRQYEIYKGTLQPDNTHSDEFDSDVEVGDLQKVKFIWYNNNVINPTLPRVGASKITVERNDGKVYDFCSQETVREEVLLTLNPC
Assay: Pancreatic lipase (PL) inhibitory activity assay using pNPP as substrate
Assay type: biochemical
Experimental: Pancreatic Lipase Activity Assay Preparation The pancreatic lipase activity assay uses 4-nitrophenyl palmitate (pNPP) as colorimetric lipase substrate. […] Tris-Borate-EDTA buffer (10X, pH 8.3, PB 1040) was purchased from Vivantis Technologies (Selangor, Malaysia).
Buffer solution was prepared by diluting the 10X Tris-Borate-EDTA buffer (890 mM) into 50 mM solution, followed by addition of 0.35% (m/v) sodium deoxycholate, and adjust pH to 8.3. pNPP solution was prepared by adding pNPP into isopropanol to make a 1.5 mg/mL solution. Both solutions were stored in fridge (4° C.) for further tests. PL solution was prepared by suspending PL in 4° C. buffer solution (10 mg/mL), shaking by vortex mixer for 2 min, and centrifuging at 4° C., 6000 rpm for 5 min. The supernatant was divided into several 0.5 mL aliquots in 0.6 mL PP centrifuge tubes and stored in freezer (-18° C.) for further tests.
High-throughput Pancreatic Lipase Activity Assay. For each sample, 20 µL of extract was transferred into a 0.6 mL PP centrifuge tube, dry up at room temperature for 10 min, followed by adding 300 µL buffer solution. The mixture was sonicated thoroughly in water bath sonicator, 150 µL of the sample was transferred onto a 96-well microplate (Corning, clear polystyrene, USA), and incubated in microplate reader (Synergy HT, Biotek Instruments Inc., Winooski, VT, USA) at 37° C. for 15 min. Meanwhile, frozen lipase solution was thawed in room temperature, 10 µL of which was added into the well, and incubate at 37° C. for another 10 min. Finally, the reaction starts by adding 10 µL pNPP solution into each well. The reading wavelength was fixed at 410 nm, 3 s shaking before each reading, and a 1-hour kinetic data was obtained by a reading interval of 20 or 60 seconds. Negative control group (blank) was prepared by adding 20 µL pure solvent instead of extract in the first step.
The tendency of readings in the first 3 minutes were regarded as linear growth, and the slope was calculated by linear regression in Excel (Office 2016, Microsoft, USA). The inhibition activity of each sample is calculated in percentage inhibition by Eq. 1.
Comparator PL Inhibitory Assay (pNPP as substrate). p-Nitrophenyl palmitate (pNPP) is a synthetic chemical probe widely used in PL inhibitory assay. Long chain fatty acid (palmitic acid) and chromatic indicator (p-nitrophenol) are linked by an ester bond, and the molecule works as a substrate of PL. Hydrolyzed by PL in buffer solution, pNPP molecules release the indicators, and a yellowish color is presented. PL activity is indicated by the speed of color gain by time, and the color could be measured by optical density at 410 nm by a spectrometer. […] According to Michaelis-Menten equation, PL activity could be presented by the initial rate of the reaction. […] The inhibition is calculated percentage by Eq.1, and a dose-response curve could be plotted according to PL inhibition under different inhibitor concentrations (FIG. 1B). Fitting with proper model, IC50 could be calculated by plugging 50% into the fitted formula.

[1] = isolated resin glycosides of sweet potato tuber, read-out: PL inhibition IC50
[2] = lipase inhibition, resin glycosides in fraction F5.1.23.34 of sweet potato tuber, read-out: IC50
[3] = lipase inhibition, resin glycosides in fraction F5.1.23.34 of sweet potato tuber, read-out: IC50 (µg/mL) (converted)
[4] = lipase inhibition, resin glycosides in fraction F5.1.23.34 of sweet potato tuber

IC50 [1] [µM] | IC50 [2] [µM] | IC50 [3] [µM] | IC50 (µg/mL) [4] [µg/mL] | Compound
4.9 to 6.7 | 4.9 | 4.91 | – | CCCCC[C@H]1CCCCCCCCCC(=O)O[C@H]2[C@H](O[C@H]3[C@H](O1)O[C@H](C)[C@H](O)[C@@H]3O)O[C@@H](C)[C@H](O[C@@H]1O[C@@H](C)[C@H](O[C@@H]3O[C@@H](C)[C@H](OC(=O)[C@@H](C)CC)[C@@H](OC(=O)/C=C/c4ccccc4)[C@H]3O)[C@@H](O[C@@H]3O[C@@H](C)[C@H](O)[C@@H](O)[C@H]3O)[C@H]1OC(=O)[C@@H](C)CC)[C@H]2O [Batatoside III]
4.9 to 6.7 | 5.6 | 5.61 | – | CCCCCC1CCCCCCCCCC(=O)OC2C(O)C(OC(C)C2OC2OC(C)C(OC3OC(C)C(OC(=O)C(C)CC)C(OC(=O)C=Cc4ccccc4)C3O)C(OC3OC(C)C(O)C(O)C3O)C2OC(=O)C(C)CC)OC2C(O1)OC(C)C(O)C2O (stereo not shown) [Pescaprein XXVII]
– | 6.7 | – | 8.5 | Batataoside I
– | 6 | – | 7.6 | Batataoside II

Source: patent US20230310532A1, “FOOD EXTRACTS, METHODS OF EXTRACTION AND COMPOSITIONS THEREOF” (National University of Singapore, priority 2020, published 2023)
